Reference: patent publication US20230312578A1, “6H-INDOLO[2,3-B]QUINOXALINE DERIVATIVES USEFUL IN THERAPY” (Vironova Medical AB, priority 2020, published 2023)
Where two headings read alike, the source gives them in different places.

Columns and labels:
Type in all cases: cell-based
HT29 = test: Human tumor cell line growth assay (SRB); settings: Homo sapiens, HT-29; Colon, HT29, 48 h
[1] = Human tumor cell line growth assay (SRB); settings: human, HT29 cells (colon), HT29, 48 h, read-out: LC50
SK-MEL-28 = test: Human tumor cell line growth assay (SRB); settings: Homo sapiens; Melanoma, SK-MEL-28, 48 h
[2] = Human tumor cell line growth assay (SRB); settings: human, SK-MEL-28 cells (melanoma), SK-MEL-28, 48 h, read-out: LC50
A549/ATCC = test: Human tumor cell line growth assay (SRB); settings: Homo sapiens, NSCLC, 48 h
[3] = Human tumor cell line growth assay (SRB); settings: human, A549/ATCC cells (NSCLC), read-out: LC50
SK-MEL-5 = test: Human tumor cell line growth assay (SRB); settings: Homo sapiens; Melanoma, SK-MEL-5, 48 h
[4] = Human tumor cell line growth assay (SRB); settings: human, SK-MEL-5 cells (melanoma), SK-MEL-5, 48 h
A498 = test: Human tumor cell line growth assay (SRB); settings: Renal, A498, 48 h; for CC50: read-out: LC50 (the source's name)
KM12 = test: Human tumor cell line growth assay (SRB); settings: Homo sapiens; Colon, KM12, 48 h
[5] = Human tumor cell line growth assay (SRB); settings: human, KM12 cells (colon), KM12, 48 h, read-out: LC50
OVCAR-5 = test: Human tumor cell line growth assay (SRB); settings: Homo sapiens; Ovarian, OVCAR-5, 48 h
[6] = Human tumor cell line growth assay (SRB); settings: human, OVCAR-5 cells (ovarian), OVCAR-5, 48 h, read-out: LC50
SK-MEL-2 = test: Human tumor cell line growth assay (SRB); settings: Homo sapiens; Melanoma, SK-MEL-2, 48 h
[7] = Human tumor cell line growth assay (SRB); settings: human, SK-MEL-2 cells (melanoma), SK-MEL-2, 48 h, read-out: LC50
HCT-15 = test: Human tumor cell line growth assay (SRB); settings: Homo sapiens; Colon, HCT-15, 48 h
[8] = Human tumor cell line growth assay (SRB); settings: human, HCT-15 cells (colon), HCT-15, 48 h
MALME-3M = test: Human tumor cell line growth assay (SRB); settings: Homo sapiens, Melanoma, 48 h
[9] = Human tumor cell line growth assay (SRB); settings: human, MALME-3M cells (melanoma), read-out: LC50
NCI/ADR-RES = test: Human tumor cell line growth assay (SRB); settings: Ovarian, 48 h; for CC50: read-out: LC50 (the source's name)
SNB-75 = test: Human tumor cell line growth assay (SRB); settings: Homo sapiens; CNS, SNB-75, 48 h
[10] = Human tumor cell line growth assay (SRB); settings: human, SNB-75 cells (CNS), SNB-75, 48 h
K-562 = test: Human tumor cell line growth assay (SRB); settings: K562, Leukemia, K-562, 48 h; for CC50: read-out: LC50 (the source's name)
CCRF-CEM = test: Human tumor cell line growth assay (SRB); settings: Leukemia, 48 h; for CC50: read-out: LC50 (the source's name)
[11] = Human tumor cell line growth assay (SRB); settings: human, U251 cells (CNS), U251, 48 h, read-out: LC50
U251 = test: Human tumor cell line growth assay (SRB); settings: Homo sapiens, U-251; CNS, U251, 48 h
HOP-92 = test: Human tumor cell line growth assay (SRB); settings: Homo sapiens; NSCLC, HOP-92, 48 h
[12] = Human tumor cell line growth assay (SRB); settings: human, HOP-92 cells (NSCLC), HOP-92, 48 h
SF-268 = test: Human tumor cell line growth assay (SRB); settings: Homo sapiens; CNS, SF-268, 48 h
[13] = Human tumor cell line growth assay (SRB); settings: human, SF-268 cells (CNS), SF-268, 48 h
OVCAR-8 = test: Human tumor cell line growth assay (SRB); settings: Ovarian, OVCAR-8, 48 h; for CC50: read-out: LC50 (the source's name)
SW-620 = test: Human tumor cell line growth assay (SRB); settings: Homo sapiens; Colon, SW-620, 48 h
[14] = Human tumor cell line growth assay (SRB); settings: human, SW-620 cells (colon), SW-620, 48 h
MOLT-4 = test: Human tumor cell line growth assay (SRB); settings: Homo sapiens; Leukemia, MOLT-4, 48 h
[15] = Human tumor cell line growth assay (SRB); settings: human, MOLT-4 cells (leukemia), MOLT-4, 48 h, read-out: LC50
NCI-H23 = test: Human tumor cell line growth assay (SRB); settings: Homo sapiens; NSCLC, NCI-H23, 48 h
[16] = Human tumor cell line growth assay (SRB); settings: human, NCI-H23 cells (NSCLC), NCI-H23, 48 h, read-out: LC50

SMILES: Cc1cc2nc3c4ccccc4n(CCN(C)C)c3nc2cc1C [B220, 2-(2,3-dimethyl-6H-indolo [2,3-b]quinoxalin-6-yl)-N,N-dimethylethanamine, reference compound]
- GI50 (HT29): 760 nM
- CC50 at 48 h [1]: 45.3 µM
- GI50 (SK-MEL-28): 2090 nM
- CC50 at 48 h [2]: 9.45 µM
- GI50 (A549/ATCC): 1280 nM
- CC50 at 48 h [3]: > 100 µM
- GI50 (SK-MEL-5): 1700 nM
- LC50 (concentration killing 50% of tumour cells) at 48 h [4]: 12 µM
- GI50 (A498): 1430 nM
- CC50 (A498): 5.74 µM
- GI50 (KM12): 1930 nM
- CC50 at 48 h [5]: 38.6 µM
- GI50 (OVCAR-5): 2100 nM
- CC50 at 48 h [6]: 33.4 µM
- GI50 (SK-MEL-2): 1900 nM
- CC50 at 48 h [7]: 7.49 µM
- GI50 (HCT-15): 1770 nM
- LC50 (concentration killing 50% of cells) at 48 h [8]: > 100 µM
- GI50 (MALME-3M): 1410 nM
- CC50 at 48 h [9]: 53.3 µM
- GI50 (NCI/ADR-RES): 1390 nM
- CC50 (NCI/ADR-RES): 90.2 µM
- GI50 (SNB-75): 1280 nM
- LC50 (concentration killing 50% of cells) at 48 h [10]: 80.2 µM
- GI50 (K-562): 1990 nM
- CC50 (K-562): > 100 µM
- GI50 (CCRF-CEM): 1990 nM
- CC50 (CCRF-CEM): > 100 µM
- CC50 at 48 h [11]: 44.6 µM
- GI50 (U251): 2010 nM
- GI50 (HOP-92): 1360 nM
- LC50 at 48 h [12]: > 100 µM
- GI50 (SF-268): 1450 nM
- LC50 (50% lethal concentration) at 48 h [13]: 28 µM
- GI50 (OVCAR-8): 1160 nM
- CC50 (OVCAR-8): 87.2 µM
- GI50 (SW-620): 540 nM
- LC50 (50% lethal concentration) at 48 h [14]: 35 µM
- GI50 (MOLT-4): 555 nM
- CC50 at 48 h [15]: 95.1 µM
- GI50 (NCI-H23): 1870 nM
- CC50 at 48 h [16]: 45.6 µM

SMILES: COc1ccc2c(c1)c1nc3cc(C)c(C)cc3nc1n2CCN(C)C [JBA-094, 2-(9-methoxy-2,3-dimethyl-6H-indolo[2,3-b]quinoxalin-6-yl)-N,N-dimethylethanamine]
- GI50 (HT29): 369 nM
- CC50 at 48 h [1]: 5.72 µM
- GI50 (SK-MEL-28): 1790 nM
- CC50 at 48 h [2]: 6.76 µM
- GI50 (A549/ATCC): 482 nM
- CC50 at 48 h [3]: 7.97 µM
- GI50 (SK-MEL-5): 1660 nM
- LC50 (concentration killing 50% of tumour cells) at 48 h [4]: 5.58 µM
- GI50 (A498): 1480 nM
- CC50 (A498): 5.56 µM
- GI50 (KM12): 1050 nM
- CC50 at 48 h [5]: 6.36 µM
- GI50 (OVCAR-5): 1120 nM
- CC50 at 48 h [6]: 5.28 µM
- GI50 (SK-MEL-2): 1710 nM
- CC50 at 48 h [7]: 7.87 µM
- GI50 (HCT-15): 410 nM
- LC50 (concentration killing 50% of cells) at 48 h [8]: 5.57 µM
- GI50 (MALME-3M): 1110 nM
- CC50 at 48 h [9]: 5.77 µM
- GI50 (NCI/ADR-RES): 588 nM
- GI50 (SNB-75): 1230 nM
- LC50 (concentration killing 50% of cells) at 48 h [10]: 23.8 µM
- GI50 (K-562): 444 nM
- CC50 (K-562): > 100 µM
- GI50 (CCRF-CEM): 795 nM
- CC50 (CCRF-CEM): > 100 µM
- CC50 at 48 h [11]: 6.09 µM
- GI50 (U251): 526 nM
- GI50 (HOP-92): 238 nM
- LC50 at 48 h [12]: 6.08 µM
- GI50 (SF-268): 1330 nM
- LC50 (50% lethal concentration) at 48 h [13]: 8.23 µM
- GI50 (OVCAR-8): 531 nM
- GI50 (SW-620): 454 nM
- LC50 (50% lethal concentration) at 48 h [14]: 5.53 µM
- GI50 (MOLT-4): 420 nM
- CC50 at 48 h [15]: 96 µM
- GI50 (NCI-H23): 973 nM
- CC50 at 48 h [16]: 8.2 µM

SMILES: Cc1cc2nc3c4cc([N+](=O)[O-])ccc4n(CCN(C)C)c3nc2cc1C [JBA-185, 2-(2,3-dimethyl-9-nitro-6H-indolo[2,3-b]quinoxalin-6-yl)-N,N-dimethylethanamine]
- GI50 (HT29): 375 nM
- CC50 at 48 h [1]: > 100 µM
- GI50 (SK-MEL-28): 807 nM
- CC50 at 48 h [2]: 5.65 µM
- GI50 (A549/ATCC): 387 nM
- CC50 at 48 h [3]: 94.4 µM
- GI50 (SK-MEL-5): 1040 nM
- LC50 (concentration killing 50% of tumour cells) at 48 h [4]: 4.77 µM
- GI50 (A498): 1260 nM
- CC50 (A498): 5.5 µM
- GI50 (KM12): 567 nM
- CC50 at 48 h [5]: > 100 µM
- GI50 (OVCAR-5): 587 nM
- CC50 at 48 h [6]: > 100 µM
- GI50 (SK-MEL-2): 1040 nM
- CC50 at 48 h [7]: 9.02 µM
- GI50 (HCT-15): 349 nM
- LC50 (concentration killing 50% of cells) at 48 h [8]: > 100 µM
- GI50 (MALME-3M): 542 nM
- CC50 at 48 h [9]: 5.1 µM
- GI50 (NCI/ADR-RES): 415 nM
- CC50 (NCI/ADR-RES): > 100 µM
- GI50 (SNB-75): 447 nM
- LC50 (concentration killing 50% of cells) at 48 h [10]: 5.45 µM
- GI50 (K-562): 360 nM
- CC50 (K-562): > 100 µM
- GI50 (CCRF-CEM): 642 nM
- CC50 (CCRF-CEM): > 100 µM
- CC50 at 48 h [11]: > 100 µM
- GI50 (U251): 470 nM
- GI50 (HOP-92): 642 nM
- LC50 at 48 h [12]: > 100 µM
- GI50 (SF-268): 793 nM
- LC50 (50% lethal concentration) at 48 h [13]: > 100 µM
- GI50 (OVCAR-8): 550 nM
- CC50 (OVCAR-8): > 100 µM
- GI50 (SW-620): 302 nM
- LC50 (50% lethal concentration) at 48 h [14]: > 100 µM
- GI50 (MOLT-4): 368 nM
- CC50 at 48 h [15]: > 100 µM
- GI50 (NCI-H23): 492 nM
- CC50 at 48 h [16]: 22.6 µM

SMILES: Cc1cc2nc3c4cc(O)ccc4n(CCN(C)C)c3nc2cc1C [JBD-139, 6-(2-(dimethylamino)ethyl)-2,3-dimethyl-6H-indolo [2,3-b]quinoxalin-9-ol]
- GI50 (HT29): 379 nM
- CC50 at 48 h [1]: > 100 µM
- GI50 (SK-MEL-28): 1500 nM
- GI50 (A549/ATCC): 358 nM
- GI50 (SK-MEL-5): 1450 nM
- LC50 (concentration killing 50% of tumour cells) at 48 h [4]: 5.33 µM
- GI50 (A498): 948 nM
- CC50 (A498): 5.69 µM
- GI50 (KM12): 512 nM
- GI50 (OVCAR-5): 867 nM
- CC50 at 48 h [6]: > 100 µM
- GI50 (SK-MEL-2): 1100 nM
- GI50 (HCT-15): 405 nM
- LC50 (concentration killing 50% of cells) at 48 h [8]: > 100 µM
- GI50 (MALME-3M): 623 nM
- GI50 (NCI/ADR-RES): 436 nM
- CC50 (NCI/ADR-RES): > 100 µM
- GI50 (SNB-75): 214 nM
- LC50 (concentration killing 50% of cells) at 48 h [10]: > 100 µM
- GI50 (K-562): 338 nM
- CC50 (K-562): > 100 µM
- GI50 (CCRF-CEM): 468 nM
- CC50 (CCRF-CEM): > 100 µM
- GI50 (U251): 356 nM
- GI50 (HOP-92): 246 nM
- LC50 at 48 h [12]: > 100 µM
- GI50 (SF-268): 822 nM
- LC50 (50% lethal concentration) at 48 h [13]: > 100 µM
- GI50 (OVCAR-8): 412 nM
- CC50 (OVCAR-8): > 100 µM
- GI50 (SW-620): 320 nM
- GI50 (MOLT-4): 359 nM
- CC50 at 48 h [15]: > 100 µM
- GI50 (NCI-H23): 506 nM
